Test results as given in patent US4869904A, “Sustained release drug preparation” (Nisshin Flour Milling Co., Ltd., priority 1986, dated 1989).
Structures can show the parent of a compound that is named as a salt.

Experiment: Dissolution and release of powder samples in water (FIG. 2)
Assay type: physicochemical
Settings: alone
Method: The formation of an inclusion complex of a medical compound with an alkylated cyclodextrin derivative in accordance with the process described above was confirmed by various methods such as powder X-ray diffraction, dissolution behavior, scanning electron microscope analysis, differential thermal analysis (DTA) and infrared absorption (IR). Inclusion complexes were prepared using diltiazem hydrochloride as an exemplary medical compound, and the behavior of dissolution and release of diltiazem from the inclusion complex in the powder form, as well as the behavior of dissolution and release of diltiazem from compressed tablets containing the inclusion complex were determined in order to confirm the complexing reaction and to evaluate the sustained release property, respectively. Further, the inclusion complex was administered orally to rats, and changes in the plasma concentration of the medical compound were then measured. While taking the determined dissolution and release behavior of the diltiazem into parallel consideration, the achievement of the sustained release property of the inclusion complex was confirmed. It was also proven that the dissolution and release rate of the medical compound, diltiazem, could be controlled at will, by using the ethylated cyclodextrins as the host compound for formation of inclusion complexes. […]

COc1ccc([C@@H]2Sc3ccccc3N(CCN(C)C)C(=O)[C@@H]2OC(C)=O)cc1 [diltiazem hydrochloride]
time to dissolution in water to an extent of 100%: about 5 minutes
